For one series, the system named is SS cells. The series is described as follows: Antisickling study with SS cells under hypoxia (2.5% O2). The conditions noted are these: 20% hematocrit, […] O2, 37 °C. It counts as cell-based, human. As for the experimental part:
(§1) For our previously studied compounds (e.g., INN-312, TD-7, SAJ-310, INN-298) that incorporate methoxyPy substitution to vanillin analogs, we observed a significant increase in functional and biological activity as a result of increased protein interactions[31],[33],[35],[36]. We therefore expected similar effects for VZHE-039, which we tested by following VZHE-039 activity (measured by Hb adduct formation, P50-shift and RBC sickling inhibition) using SS blood. Briefly, we incubated 0.5, 1, and 2 mM concentrations of VZHE-039 with whole blood suspensions from subjects with homozygous SCD (Hct of 20%) under hypoxic conditions (2.5% O2/97.5% N2) at 37 °C for 2 h for expected peak adduct. Aliquot blood samples were drawn into a fixative (2% glutaraldehyde solution), and sickling was assessed by microscopy[31],[33],[35],[36]. Aliquot samples were also subjected to cation-exchange HPLC analyses to assess the degree of Hb modification to the high-affinity adduct form (Hb adduct formation), as well as standard O2 equilibrium curves (OEC) to assess P50-shifts using hemox analyzer[31],[33],[35],[36]. […] The improved potency of Voxelotor has been attributed to reduced binding stoichiometry, i.e. while Voxelotor binds Hb at a 1:1 ratio, VZHE-039 binds Hb at a 2:1 ratio. […] This observation, as will be discussed later is likely due to a meaningful contribution from the novel O2-independent antisickling activity as result of the strong contact with the αF-helix.
(§2) The effect of VZHE-039 on RBC sickling, Hb modification, and Hb oxygen equilibrium was studied utilizing samples from consented individuals with homozygous SCD following previous procedure. Briefly, blood suspended in Hemox buffer and supplemented with glucose and bovine serum albumin, to a final hematocrit of 20% were incubated under air in the absence or presence of 0.5 mM, 1 mM and 2 mM VZHE-039 at 37 °C for 1 h. This was followed by incubating the suspensions under hypoxic conditions (2.5% O2/97.5% N2) at 37 °C for 2 h. Aliquot samples were obtained and fixed with 2% glutaraldehyde solution without exposure to air, and then subjected to microscopic morphological analysis of bright field images (at × 40 magnification) of single layer cells on an Olympus BX40 microscope fitted with an Infinity 2 camera (Olympus), and the coupled Image Capture software. Leftover samples were washed in phosphate-buffer saline, and hemolyzed in hypotonic lysis buffer for subsequent Hb-modification and oxygen equilibrium analyses.

Series [1] in a line: Partitioning into RBCs in whole blood. It counts as in vitro ADME. The conditions noted are these: 100–300 µM; normal whole human blood, 37 °C. As to the method: Toxicity concerns remain an important issue in the use of aromatic aldehydes in treating a chronic disease, such as SCD, especially as it involves modification of a large amount of in vivo present Hb. […] We evaluated key metrics such as in vitro RBC partitioning and ADME/safety profiles, in order to glean important safety insights. […] We also assessed VZHE-039 at 10 μM for its bi-directional cell permeability using Caco-2 cell monolayers[53],[54].
We incubated test compounds at expected blood concentrations (100–300 uM) with whole blood (mouse or human), after which we analyzed compound concentrations separately in plasma, whole blood and RBCs. Previously, we have established and validated reversed-phase HPLC and LC/MS methods for accurately measuring the compounds in blood. Validated reversed-phase HPLC was conducted on a Hitachi system, using a Waters C18 column, and a gradient of 0.1% Formic Acid in water (mobile phase A), and 0.1% Formic Acid in Acetonitrile (mobile phase B) at a flow rate of 1 mL/min in 12 min. UHPLC and LC/MS analyses were conducted at the Bioanalytical Core Facility at The Children’s Hospital of Philadelphia. […] 5 uL of each sample was injected at analyzed using a gradient of: (A) 5 mM ammonium acetate in deionized water (pH adjusted to 4.8 by formic acid); and (B) 5 mM ammonium acetate in (90:10) acetonitrile: water, at a flow rate of 0.5 mL/minute. […]

The target of the next series is T1, HbS (Homo sapiens, UniProt P69905).
T1 construct: whole blood suspensions from subjects with homozygous SCD (Hct of 20%); from tissue; host or cells: whole blood / red blood cells of patients with homozygous SS sickle cell disease; lysate for HPLC and OEC
T1 sequence (P69905 2-142): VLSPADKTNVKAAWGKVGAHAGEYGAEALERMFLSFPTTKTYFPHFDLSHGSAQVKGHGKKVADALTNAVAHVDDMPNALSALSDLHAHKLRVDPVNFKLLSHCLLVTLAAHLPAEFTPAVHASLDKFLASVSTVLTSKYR
T1 sequence (P68871 with tags, fused parts or gaps E7V partner): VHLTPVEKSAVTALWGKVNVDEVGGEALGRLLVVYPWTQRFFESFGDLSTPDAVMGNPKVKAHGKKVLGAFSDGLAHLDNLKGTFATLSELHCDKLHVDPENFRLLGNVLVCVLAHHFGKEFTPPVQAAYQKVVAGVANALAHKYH
Briefly: Hb modification (HbS adduct formation) by cation-exchange HPLC of lysates from SS cells. It counts as cell-based. The conditions noted are these: SS cells, 20% hematocrit, HPLC of hemolysates. As to the method: as §1, §2
Finally, for the Hb adduct formation studies, the above clarified lysates were subjected to cation-exchange HPLC (Hitachi D-7000 Series, Hitachi Instruments, Inc., San Jose, CA), using a weak cation-exchange column (Poly CAT A: 30 mm × 4.6 mm, Poly LC, Inc., Columbia, MD). A commercial standard consisting of approximately equal amounts of composite HbF, HbA, HbS and HbC (Helena Laboratories, Beaumont, TX), was utilized as the reference for isotypes. The areas of new peaks, representing HbS adducts, were obtained, calculated as percentage fractions of total Hb area, and reported as levels of modified Hb.

Molecules are shown by their SMILES. “And” between values parts separate entries of the source, which are not always exact repeats. Equal entries are not always repeated.

As to `O=Cc1c(O)cccc1OCc1cccc(CO)n1` [VZHE-039, 2-((6-(Hydroxymethyl)pyridin-2-yl)methoxy)-6-hydroxybenzaldehyde], the “Sickling Inhibition” value with SS cells (0.5 mM) is given as 34.5 ± 2.4%; in the series with SS cells (1 mM) it was 63.7 ± 6.9%; with SS cells (2 mM), 92.8 ± 5.5%. In the series with SS cells (Homo sapiens, 0.5 mM, read-out: Sickling Inhibition), the inhibition at 500 µM was determined as 35%. Also, the inhibition at 1000 µM in the series with SS cells (Homo sapiens, 1 mM, read-out: Sickling Inhibition) turned out to be 63%. In addition, in the series with SS cells (Homo sapiens, 2 mM, read-out: Sickling Inhibition), the inhibition at 2000 µM came to 93%. Also, the “Partitioned into the RBC compartment” value in series [1] was “approximately 85%”. Besides, the “Hb Modification” value is 38% and 38.0 ± 7.2% on HbS (0.5 mM); 72% and 72.6 ± 6.4% at HbS (1 mM); 97.4 ± 6.7% at HbS (2 mM).

What is called inhibition is the change of the read-out against control, counted positive when it falls.

The record behind these values is article PMC7679387, “VZHE-039, a novel antisickling agent that prevents erythrocyte sickling under both hypoxic and anoxic conditions” (Scientific Reports, 2020).
